Reference: PubChem BioAssay AID1963974 (Molecular Pharmacology Branch, DTP, NCI, 2024)

System: 648629-189-R-J1-PDC spheroids with HUVEC/MSC, viability
Test: Anticancer human tumor 648629-189-R-J1-PDC patient-derived bladder carcinoma cell line growth inhibition [PI3K]
Details: for IC50: curve of first compound; for viability, T/C: stronger effect = lower value
In short: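 We assembled tumor spheroids that included a stromal compartment of HUVEC and MSCs, then exposed them to targeted agents alone and together with PI3K pathway inhibitors. Concentration series descended by half-log from clinically achievable Cmax levels. Viability served as the endpoint.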

[1] = second compound 0.00316 µM, first compound 0.0316 µM
[2] = second compound 0.00316 µM, first compound 0.1 µM
[3] = second compound 0.00316 µM, first compound 0.316 µM
[4] = second compound 0.00316 µM, first compound 1 µM
[5] = second compound 0.00316 µM, first compound 3.16 µM
[6] = second compound 0.00316 µM, first compound 10 µM
[7] = second compound 0.01 µM, first compound 0.0316 µM
[8] = second compound 0.01 µM, first compound 0.1 µM
[9] = second compound 0.01 µM, first compound 0.316 µM
[10] = second compound 0.01 µM, first compound 1 µM
[11] = second compound 0.01 µM, first compound 3.16 µM
[12] = second compound 0.01 µM, first compound 10 µM
[13] = second compound 0.0316 µM, first compound 0.0316 µM
[14] = second compound 0.0316 µM, first compound 0.1 µM
[15] = second compound 0.0316 µM, first compound 0.316 µM
[16] = second compound 0.0316 µM, first compound 1 µM
[17] = second compound 0.0316 µM, first compound 3.16 µM
[18] = second compound 0.0316 µM, first compound 10 µM
[19] = second compound 0.1 µM, first compound 0.0316 µM
[20] = second compound 0.1 µM, first compound 0.1 µM
[21] = second compound 0.1 µM, first compound 0.316 µM
[22] = second compound 0.1 µM, first compound 1 µM
[23] = second compound 0.1 µM, first compound 3.16 µM
[24] = second compound 0.1 µM, first compound 10 µM
[25] = second compound 0.316 µM, first compound 0.0316 µM
[26] = second compound 0.316 µM, first compound 0.1 µM
[27] = second compound 0.316 µM, first compound 0.316 µM
[28] = second compound 0.316 µM, first compound 1 µM
[29] = second compound 0.316 µM, first compound 3.16 µM
[30] = second compound 0.316 µM, first compound 10 µM
[31] = second compound 1 µM, first compound 0.0316 µM
[32] = second compound 1 µM, first compound 0.1 µM
[33] = second compound 1 µM, first compound 0.316 µM
[34] = second compound 1 µM, first compound 1 µM
[35] = second compound 1 µM, first compound 3.16 µM
[36] = second compound 1 µM, first compound 10 µM
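Also: spheroids exposed to agents for seven days before reading.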
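For viability, T/C in this document: percent of vehicle control luminescence where 100% = DMSO treated spheroids.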

CC1(C)CCC(CN2CCN(c3ccc(C(=O)NS(=O)(=O)c4ccc(NCC5CCOCC5)c([N+](=O)[O-])c4)c(Oc4cnc5[nH]ccc5c4)c3)CC2)=C(c2ccc(Cl)cc2)C1 + COc1c(OCCCN2CCOCC2)ccc2c3n(c(=NC(=O)c4cnc(N)nc4)nc12)CCN3
IC50 (second compound 0.00316 µM): > 10 µM
IC50 (second compound 0.01 µM): > 10 µM
IC50 (second compound 0.0316 µM): > 10 µM
IC50 (second compound 0.1 µM): > 10 µM
IC50 (second compound 0.316 µM): < 0.0316 µM
IC50 (second compound 1 µM): < 0.0316 µM
viability, T/C [1]: 107%
viability, T/C [2]: 97.6%
viability, T/C [3]: 119%
viability, T/C [4]: 108%
viability, T/C [5]: 86.5%
viability, T/C [6]: 98.2%
viability, T/C [7]: 104%
viability, T/C [8]: 106%
viability, T/C [9]: 106%
viability, T/C [10]: 91.2%
viability, T/C [11]: 91%
viability, T/C [12]: 102%
viability, T/C [13]: 97%
viability, T/C [14]: 99.8%
viability, T/C [15]: 114%
viability, T/C [16]: 89.5%
viability, T/C [17]: 92.7%
viability, T/C [18]: 102%
viability, T/C [19]: 65.7%
viability, T/C [20]: 68.8%
viability, T/C [21]: 65.8%
viability, T/C [22]: 63.8%
viability, T/C [23]: 59.3%
viability, T/C [24]: 58.4%
viability, T/C [25]: 24.1%
viability, T/C [26]: 22.1%
viability, T/C [27]: 23.5%
viability, T/C [28]: 19.9%
viability, T/C [29]: 23.7%
viability, T/C [30]: 19.6%
viability, T/C [31]: 4.02%
viability, T/C [32]: 3.65%
viability, T/C [33]: 4.06%
viability, T/C [34]: 3.2%
viability, T/C [35]: 3.26%
viability, T/C [36]: 2.9%

Cn1nccc1Nc1nccc(-c2ccn(C(CO)c3ccc(Cl)c(F)c3)c(=O)c2)n1 (centres undefined) + COc1c(OCCCN2CCOCC2)ccc2c3n(c(=NC(=O)c4cnc(N)nc4)nc12)CCN3
IC50 (second compound 0.00316 µM): > 10 µM
IC50 (second compound 0.01 µM): > 10 µM
IC50 (second compound 0.0316 µM): > 10 µM
IC50 (second compound 0.1 µM): > 10 µM
IC50 (second compound 0.316 µM): < 0.0316 µM
IC50 (second compound 1 µM): < 0.0316 µM
viability, T/C [1]: 103%
viability, T/C [2]: 92.3%
viability, T/C [3]: 106%
viability, T/C [4]: 103%
viability, T/C [5]: 98%
viability, T/C [6]: 79.2%
viability, T/C [7]: 113%
viability, T/C [8]: 96.8%
viability, T/C [9]: 104%
viability, T/C [10]: 111%
viability, T/C [11]: 107%
viability, T/C [12]: 79.4%
viability, T/C [13]: 90.9%
viability, T/C [14]: 91.4%
viability, T/C [15]: 86.3%
viability, T/C [16]: 110%
viability, T/C [17]: 102%
viability, T/C [18]: 79.2%
viability, T/C [19]: 70.1%
viability, T/C [20]: 65.7%
viability, T/C [21]: 64.2%
viability, T/C [22]: 83%
viability, T/C [23]: 83.3%
viability, T/C [24]: 68.8%
viability, T/C [25]: 20.6%
viability, T/C [26]: 21.1%
viability, T/C [27]: 26.9%
viability, T/C [28]: 28.3%
viability, T/C [29]: 48.6%
viability, T/C [30]: 44.5%
viability, T/C [31]: 3.68%
viability, T/C [32]: 3.03%
viability, T/C [33]: 3.39%
viability, T/C [34]: 3.34%
viability, T/C [35]: 8.78%
viability, T/C [36]: 9.04%
